These are literature values, as cited in article PMC5493349, “Quaternary structure is an essential component that contributes to the sophisticated allosteric regulation mechanism in a key enzyme from Mycobacterium tuberculosis” (PLoS ONE, 2017).

Holding throughout (settings): cited from earlier work
The target of data set [1] is T1, wild-type MtuDAH7PS (Mycobacterium tuberculosis, UniProt O53512).
Data set [2] concerns the target T1, wild-type MtuDAH7PS. The source holds these as a separate data set.
The target in data set [3] is T1, wild-type MtuDAH7PS. The source holds these as a separate data set.

T1 sequence (O53512 whole entry): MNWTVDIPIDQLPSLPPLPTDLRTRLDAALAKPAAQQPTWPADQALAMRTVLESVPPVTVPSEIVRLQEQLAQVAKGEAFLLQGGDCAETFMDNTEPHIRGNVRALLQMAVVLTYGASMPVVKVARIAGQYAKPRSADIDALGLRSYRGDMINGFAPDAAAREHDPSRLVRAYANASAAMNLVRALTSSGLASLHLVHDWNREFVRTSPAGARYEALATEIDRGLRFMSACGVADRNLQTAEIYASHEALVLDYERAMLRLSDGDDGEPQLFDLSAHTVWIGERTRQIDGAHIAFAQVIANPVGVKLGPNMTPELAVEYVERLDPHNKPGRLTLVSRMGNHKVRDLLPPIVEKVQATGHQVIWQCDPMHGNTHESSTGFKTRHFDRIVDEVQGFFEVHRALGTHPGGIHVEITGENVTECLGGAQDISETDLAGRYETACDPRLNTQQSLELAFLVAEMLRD

For the compound `O=C[C@H](O)[C@H](O)COP(=O)(O)O` [E4P, erythrose 4-phosphate], the E4P0.5 in data set [1] was 382 µM.
With `N[C@@H](Cc1c[nH]c2ccccc12)C(=O)O` [Trp, L-Trp], in data set [2], the “inhibition of wild type MtuDAH7PS by Trp alone” value was “not inhibitory”. For the same compound, in data set [3], the “reduction in Kd of Trp after pre-incubation with Phe” value was 4 fold.
